Source: patent US10597390B2, “Indoles for use in influenza virus infection” (Janssen Sciences Ireland UC, priority 2014, dated 2020)
pIC50: −log10 of the molar value. Structures can show the parent of a compound that is named as a salt.

Legend:
[1] = test system: influenza virus A/Taiwan/1/86 (H1N1); assay: organism not typed; format: cell-based; details: CPE in MDCK cells, three days post-virus exposure, ATPlite
in vitro = details: dog, TOX MDCK CC50

SMILES | pIC50 ([1]; MDCK, 72 h) | melting point [°C] | CC50 at 3 days (in vitro) [nM] | pIC50 [1]
N#Cc1cc(F)c2[nH]cc(-c3ncc(F)c(N[C@H]4C5CCC(CC5)[C@@H]4C(=O)O)n3)c2c1 [Compound 171] | 8.22 | 211.6 | 700 | –
Cc1cc(C(=O)N[C@@H]2CCC[C@H](Nc3nc(-c4c[nH]c5c(F)cc(Cl)cc45)ncc3F)C2)nn1C [Compound 36] | 8.00 | 178.2 | 5500 | –
Nc1n[nH]c(C(=O)N[C@@H]2CCC[C@H](Nc3nc(-c4c[nH]c5c(F)cc(F)cc45)ncc3F)C2)n1 | – | > 300 | – | –
Cc1cc(F)c2[nH]cc(-c3ncc(F)c(N[C@H]4C5CCC(CC5)[C@@H]4C(=O)O)n3)c2c1 (mixture of isomers) (as salt: TFA) [Compound 164] | – | > 250 | – | –
O=C(O)[C@H]1[C@@H]2CC[C@@H](C2)[C@@H]1Nc1nc(-c2c[nH]c3c(F)cc(F)cc23)ncc1F (racemic) [Compound 217, (+/−)-(2-exo, 3-endo)-3-((2-(5,7-difluoro-1H-indol-3-yl)-5-fluoropyrimidin-4-yl)amino)bicyclo[2.2.1]heptane-2-carboxylic Acid] | 7.66 | – | 5000 | –
CC(C)(C)[C@@H](CO)Nc1nc(-c2c[nH]c3c(F)cc(F)cc23)c(C#N)cc1F [Compound 257, (S)-2-(5,7-difluoro-1H-indol-3-yl)-5-fluoro-6-((1-hydroxy-3,3-dimethyl-butan-2-yl)amino)nicotinonitrile] | 6.89 | – | 7000 | –
CC[C@]1(C(=O)O)CCCC[C@@H]1Nc1nc(-c2c[nH]c3c(F)cc(F)cc23)ncc1F (racemic) [Compound 252] | 6.46 | – | 8200 | –
O=C(N[C@@H]1CCC[C@H](Nc2nc(-c3c[nH]c4c(F)cc(C(F)(F)F)cc34)ncc2F)C1)c1ccccn1 (racemic) [Compound 263] | 7.82 | – | 3900 | –
CC(C)(C)[C@H](CC(=O)O)Nc1nc(-c2c[nH]c3c(F)cc(Cl)cc23)ncc1F [Compound 40] | 8.30 | – | 400 | –
O=C(N[C@@H]1CCC[C@H](Nc2nc(-c3c[nH]c4c(F)cc(F)cc34)ncc2F)C1)c1nnn[nH]1 | – | 270.2 | – | –
CN1CCC[C@H]1C(=O)N[C@H]1CCC[C@@H](Nc2nc(-c3c[nH]c4c(F)cc(F)cc34)ncc2F)C1 [Compound 82] | 6.57 | – | 12900 | –
C=Cn1cnc(C(=O)N[C@@H]2CCC[C@H](Nc3nc(-c4c[nH]c5c(F)cc(F)cc45)ncc3F)C2)c1 [Compound 89] | 8.40 | – | 7300 | –
CC(C)(C)C(CC(=O)O)Nc1nc(-c2c[nH]c3c(F)cc(F)cc23)c(C#N)cc1F (stereo not drawn) [Compound 219] | 8.30 | – | 210 | –
CC(=O)NCc1cc(F)c(N[C@H]2CCC[C@@H](NC(=O)c3cn(C)cn3)C2)nc1-c1c[nH]c2c(F)cc(F)cc12 (racemic) [Compound 258] | 6.80 | – | > 25000 | –
C[C@@H]1CC[C@H](C)N1C(=O)N[C@H]1CCC[C@@H](Nc2nc(-c3c[nH]c4c(F)cc(F)cc34)ncc2F)C1 (relative stereo) [Compound 13, N-((1R*,3S*)-3-((2-(5,7-difluoro-1H-indol-3-yl)-5-fluoropyrimidin-4-yl)-amino)cyclohexyl)-cis-2,5-dimethylpyrrolidine-1-carboxamide] | 7.36 | – | 10700 | –
O=C(N[C@@H]1CCC[C@H](Nc2nc(-c3c[nH]c4c(F)cc(Cl)cc34)ncc2F)C1)c1ccccn1 [Compound 188] | – | – | 11000 | 8.30
Cn1nc(N)cc1C(=O)N[C@@H]1CCC[C@H](Nc2nc(-c3c[nH]c4c(F)cc(F)cc34)ncc2F)C1 [Compound 85] | 8.70 | – | > 25000 | –
CC(=O)Nc1cc(C(=O)N[C@@H]2CCC[C@H](Nc3nc(-c4c[nH]c5c(F)cc(F)cc45)ncc3F)C2)n(C)n1 (relative stereo) [Compound 228, 3-acetamido-N-((1R*,3S*)-3-((2-(5,7-difluoro-1H-indol-3-yl)-5-fluoropyrimidin-4-yl)amino)cyclohexyl)-1-methyl-1H-pyrazole-5-carboxamide] | 8.05 | – | > 25000 | –
O=C(N[C@@H]1CCC[C@H](Nc2nc(-c3c[nH]c4c(F)cc(F)cc34)ncc2F)C1)c1cc(=O)[nH][nH]1 [Compound 158] | 7.82 | – | 13000 | –
Cn1nc(NS(N)(=O)=O)cc1C(=O)N[C@@H]1CCC[C@H](Nc2nc(-c3c[nH]c4c(F)cc(F)cc34)ncc2F)C1 (relative stereo) [Compound 227, N-((1R*,3S*)-3-((2-(5,7-difluoro-1H-indol-3-yl)-5-fluoropyrimidin-4-yl)-amino)cyclohexyl)-1-methyl-3-(sulfamoylamino)-1H-pyrazole-5-carboxamide] | 7.82 | – | > 25000 | –
N#Cc1cc(F)c2[nH]cc(-c3ncc(F)c(N[C@H]4CCC[C@@H](NC(=O)c5ccccn5)C4)n3)c2c1 (racemic) [Compound 173] | 7.89 | – | > 25000 | –
Cc1nc(C(=O)N[C@@H]2CCC[C@H](Nc3nc(-c4c[nH]c5c(F)cc(F)cc45)ncc3F)C2)c(C)o1 (racemic) [Compound 93] | 7.41 | – | > 25000 | –

SMILES | pIC50 ([1]; MDCK, 72 h) | melting point [°C] | CC50 at 3 days (in vitro) [nM] | pIC50 [1]
O=C(N[C@@H]1CCC[C@H](Nc2nc(-c3c[nH]c4c(F)cc(F)cc34)ncc2F)C1)N1CCCC1 (racemic) [Compound 1, N-((cis)-3-((2-(5,7-difluoro-1H-indol-3-yl)-5-fluoropyrimidin-4-yl)amino)cyclohexyl)pyrrolidine-1-carboxamide] | 8.52 | – | 10200 | –
CC(=O)NCc1cc(F)c(N[C@H]2CCC[C@@H](NC(=O)N3CCCC3)C2)nc1-c1c[nH]c2c(F)cc(F)cc12 (racemic) [Compound 6] | 7.30 | – | > 25000 | –
N#Cc1cc(F)c(N[C@H]2CCC[C@@H](NC(=O)N3CCCC3)C2)nc1-c1c[nH]c2c(F)cc(F)cc12 (racemic) [Compound 4] | 8.40 | – | > 25000 | –
O=C(N[C@@H]1CCC[C@H](Nc2nc(-c3c[nH]c4c(F)cc(F)cc34)ncc2F)C1)c1ccno1 (racemic) [Compound 97] | 7.92 | – | > 22700 | –
Cc1cc(F)c2[nH]cc(-c3nc(NC(CC(=O)O)C(C)(C)c4ccn(C)n4)c(F)cc3C#N)c2c1 (stereo not drawn) [Compound 25, 3-((5-cyano-3-fluoro-6-(7-fluoro-5-methyl-1H-indol-3-yl)pyridin-2-yl)amino)-4-methyl-4-(1-methyl-1H-pyrazol-3-yl)pentanoic acid] | 7.39 | – | 900 | –
Cn1cnc(C(=O)N[C@@H]2CCC[C@H](Nc3nc(-c4c[nH]c5c(F)cc(F)cc45)ncc3F)C2)c1 (racemic) [Compound 92] | 8.40 | – | 11400 | –
Cc1[nH]nnc1C(=O)N[C@@H]1CCC[C@H](Nc2nc(-c3c[nH]c4c(F)cc(Cl)cc34)ncc2F)C1 [Compound 78] | 8.70 | – | 5700 | –
Cc1cc(C(=O)N[C@@H]2CCC[C@@H](Nc3nc(-c4c[nH]c5c(F)cc(F)cc45)c(C#N)cc3F)C2)no1 [Compound 204] | 8.00 | – | 6800 | –
CCn1ccnc1C(=O)N[C@@H]1CCC[C@H](Nc2nc(-c3c[nH]c4c(F)cc(F)cc34)ncc2F)C1 [Compound 125] | 8.40 | – | 10200 | –
Cn1cccc1C(=O)N[C@@H]1CCC[C@H](Nc2nc(-c3c[nH]c4c(F)cc(F)cc34)ncc2F)C1 (racemic) [Compound 94] | 8.30 | – | 18400 | –
O=C(O)c1cccc(C(=O)N[C@@H]2CCC[C@H](Nc3nc(-c4c[nH]c5c(F)cc(F)cc45)ncc3F)C2)n1 [Compound 157] | 6.48 | – | > 25000 | –
Cc1cc(C(=O)N[C@H]2CCC[C@@H](Nc3nc(-c4c[nH]c5c(F)cc(F)cc45)c(C(F)(F)F)cc3F)C2)on1 (racemic) [Compound 181] | 7.96 | – | 16400 | –
Cn1cnc(C(=O)NC2CC(Nc3nc(-c4c[nH]c5c(F)cc(F)cc45)ncc3F)CC(C)(C)C2)c1 (stereo not drawn) [Compound 202, N-(5-((2-(5,7-difluoro-1H-indol-3-yl)-5-fluoropyrimidin-4-yl)amino)-3,3-dimethylcyclohexyl)-1-methyl-1H-imidazole-4-carboxamide] | 6.10 | – | 3900 | –
Cc1cc(C(=O)N[C@@H]2CCC[C@H](Nc3nc(-c4c[nH]c5c(F)cc(F)cc45)ncc3F)C2)nn1C (racemic) [Compound 96] | 8.30 | – | 10500 | –
CC(C)(C)[C@H](CC(=O)O)Nc1nc(-c2c[nH]c3c(F)cc(F)cc23)ncc1F [Compound 186] | 8.00 | – | 3800 | –
O=C(N[C@@H]1CCC[C@H](Nc2nc(-c3c[nH]c4c(F)cc(F)cc34)ncc2F)C1)c1ccc(F)cn1 (racemic) [Compound 95] | 7.92 | – | > 25000 | –
O=C(N[C@H]1CCC[C@@H](Nc2nc(-c3c[nH]c4c(F)cc(F)cc34)c(C(F)(F)F)cc2F)C1)c1cnccn1 (racemic) [Compound 180] | 7.70 | – | > 25000 | –
CC[C@@]1(C(=O)O)CCCC[C@H]1Nc1nc(-c2c[nH]c3c(F)cc(F)cc23)ncc1F [Compound 253] | 6.92 | – | 15200 | –
O=C(N[C@@H]1CCC[C@H](Nc2nc(-c3c[nH]c4c(F)cc(F)cc34)ncc2F)C1)c1ccccn1 (racemic) [Compound 90] | 8.05 | – | 10900 | –
O=C(N[C@H]1CCC[C@@H](Nc2nc(-c3c[nH]c4c(F)cc(F)cc34)c(C(F)(F)F)cc2F)C1)c1ncn[nH]1 (racemic) [Compound 178] | 8.00 | – | 2600 | –
Cc1cc(F)c2[nH]cc(-c3ncc(F)c(N[C@@H]4C5CCC(CC5)[C@H]4C(=O)O)n3)c2c1 [Compound 165] | < 4.60 | – | 2300 | –
Cc1cc(F)c2[nH]cc(-c3ncc(F)c(N[C@H]4CCC[C@@H](NC(=O)c5cn(C)cn5)C4)n3)c2c1 (racemic) [Compound 190] | 7.96 | – | 13100 | –
